Measured values reported in patent publication US20030134859A1 (SANKYO COMPANY, LIMITED, priority 2000, published 2003).

Test system: Rat white adipocytes
Assay: Stimulation of differentiation of the adipocytes (Oil Red O)
Format: cell-based
Settings: 100 nM test compound; 5 days; Oil Red O ABS550; control = 100%, blank = 0%; Table 7
Outline: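 Oil Red O lipid staining, absorbance 550 nm after DMSO extraction, quantified differentiation of rat white adipocytes exposed 5 days to compound (final 100 nM, 0.1% DMSO) in differentiation medium. Percent differentiation normalised between cell-free blank (0%) and DMSO control (100%).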

SMILES	Rate of Differentiation (%)
Cc1cc(NS(=O)(=O)c2ccc(NC(=O)c3cc([N+](=O)[O-])ccc3Cl)cc2)no1 [Example 99]	119.0

Same assay, conditions: Rattus norvegicus, Adipocyte, 120 h, 100 nM test compound; 5 days; Oil Red O ABS550; control = 100%, blank = 0%; Table 7; read-out: Rate of Differentiation (%)

SMILES	activity at 0.1 µM [%]
Cc1ccc(NC(=O)c2cc([N+](=O)[O-])ccc2Cl)cc1 [Example 1, N-(4-Methylphenyl)-(2-chloro-5-nitrophenyl)carboxamide]	121
O=C(Nc1ccccc1-c1ccccc1)c1cc([N+](=O)[O-])ccc1Cl [Example 7, N-(2-Phenylphenyl)-(2-chloro-5-nitrophenyl)carboxamide]	120
O=C(Nc1cccc(NS(=O)(=O)c2ccccc2)c1)c1cc([N+](=O)[O-])ccc1Cl [Example 30, N-(3-Benzensulfonylaminophenyl)-(2-chloro-5-nitrophenyl)carboxamide]	139
O=C(Nc1nc(-c2ccccc2)cs1)c1cc([N+](=O)[O-])ccc1Cl [Example 35, N-(4-Phenylthiazol-2-yl)-(2-chloro-5-nitrophenyl)carboxamide]	122
O=C(Nc1nc(-c2ccccn2)cs1)c1cc([N+](=O)[O-])ccc1Cl [Example 38, N-[4-(2-Pyridyl)thiazol-2-yl)-(2-chloro-5-nitrophenyl)carboxamide]	137
Cc1cccc(NC(=O)c2cc([N+](=O)[O-])ccc2Cl)n1 [Example 51, N-(6-Methylpyridin-2-yl)-(2-chloro-5-nitrophenyl)carboxamide]	129
Cc1ccnc(NC(=O)c2cc([N+](=O)[O-])ccc2Cl)n1 [Example 65, N-(4-Methylpyrimidin-2-yl)-(2-chloro-5-nitrophenyl)carboxamide]	112
COC(=O)c1sccc1NC(=O)c1cc([N+](=O)[O-])ccc1Cl [Example 66, N-(2-Methoxycarbonylthiophen-3-yl)-(2-chloro-5-nitrophenyl)carboxamide]	113
Cn1c(NC(=O)c2cc([N+](=O)[O-])ccc2Cl)nc2ccccc21 [Example 82, N-(1-Methylbenzimidazol-2-yl)-(2-chloro-5-nitrophenyl)carboxamide]	114
O=C(Nc1nncs1)c1cc([N+](=O)[O-])ccc1Cl [Example 85, N-(1,3,4-Thiadiazol-2-yl)-(2-chloro-5-nitrophenyl)carboxamide]	125
O=C(Nc1ccc(S(=O)(=O)Nc2nccs2)cc1)c1cc([N+](=O)[O-])ccc1Cl [Example 96, N-[4-(Thiazol-2-yl)aminosulfonyl]phenyl-(2-chloro-5-nitrophenyl)carboxamide]	123
O=C(Nc1ccc(S(=O)(=O)Nc2ccc(Cl)nn2)cc1)c1cc([N+](=O)[O-])ccc1Cl [Example 102, N-[4-[(6-Chloropyridazin-3-yl)aminosulfonyl]phenyl]-(2-chloro-5-nitrophenyl)carboxamide]	114
N=C(N)NS(=O)(=O)c1ccc(NC(=O)c2cc([N+](=O)[O-])ccc2Cl)cc1 [Example 106, N-[4-(Amidinoaminosulfonyl)phenyl]-(2-chloro-5-nitrophenyl)carboxamide]	113
Cc1ccc(S(=O)(=O)Nc2ccc(NC(=O)c3cc([N+](=O)[O-])ccc3Cl)cc2)cc1 [Example 116, N-[4-(4-Toluenesulfonylamino)phenyl]-(2-chloro-5-nitrophenyl)carboxamide]	124
CC(=O)Nc1ccc(NC(=O)c2cc([N+](=O)[O-])ccc2Cl)cc1 [Example 117, N-(4-Acetylaminophenyl)-(2-chloro-5-nitrophenyl)carboxamide]	122
O=C(Nc1ccc(NC(=O)c2cc([N+](=O)[O-])ccc2Cl)cc1)c1ccccc1 [Example 119, N-(4-Benzoylaminophenyl)-(2-chloro-5-nitrophenyl)carboxamide]	135
O=C(Nc1ccc(NC(=O)c2cc([N+](=O)[O-])ccc2Cl)cc1)c1ccncc1 [Example 125, N-[4-(Pyridin-4-ylcarbonylamino)phenyl]-(2-chloro-5-nitrophenyl)carboxamide]	132
